Laboratory results as given in PMC12514245, “Impaired migration and lung invasion of human melanoma by a novel small molecule targeting the transmembrane domain of death receptor p75^NTR” (EMBO Molecular Medicine, 2025).
“And” between values parts separate entries of the source, which are not always exact repeats. Equal entries are not always repeated. “Also recorded” adds a separate entry of the source.

Key:
[1] = tested on: A875-NT melanoma xenograft; assay: Melanoma lung invasion assay, A875-NT, delayed treatment 3 weeks after cell injection; assay type: in vivo, SCID mice; details: A875-NT, group average
Protocol: (§1) Finally, we investigated whether delayed administration of Np75-4A22 was able to affect engraftment and growth of metastatic tumors in the lung. To this end, drug treatment (orally at 200 mg/kg) was initiated 3 weeks after intravenous injection of A875-NT or A875-shp75 cells in female SCID mice and continued for additionally 4 weekly cycles (5 days on/2 days off) as above (Fig. 8E). Metastatic spread to the lungs was monitored weekly by bioluminescent imaging of luciferase-expressing melanoma cells. […] We conclude that Np75-4A22 can be efficacious at reducing the spread and seeding of melanoma cells in the lung when administered either before or after cell implantation.
(§2) Eight-week-old female SCID mice (Charles River Laboratories, Shrewsbury, MA, USA) were housed in groups of three to five and maintained on a 12-h light/dark schedule with a temperature of 22 °C ± 1 °C and a relative humidity of 50% ± 5%. Food and water were available ad libitum. This research study was reviewed and approved by the University of Calgary Animal Care Committee (AC22-0054) and McGill University (AUP-JGH-8269) and adheres to established ethical principles and guidelines. A875-GFPLuc (A875-NT) or A875-GFPLuc shp75 (A875-shp75) cells harvested using Puck’s EDTA were resuspended in PBS and injected intravenously into SCID mice (5 × 10^5 cells/200 μl per mouse). Np75-4A22 was dissolved in 0.5% sodium carboxymethyl cellulose (NaCMC) in reverse osmosis H2O and administered by oral gavage at 200 mg/kg/day starting one day prior to intravenous (tail vein) injection of tumor cells and continued for 3 1-week cycles (cycle: 5 days on drug, 2 days off drug). Tumor spread to the lung was monitored weekly by luciferase activity using the Xenogen IVIS-200 Optical in vivo luciferase imaging system as described previously (Lun et al, [2016]) and by immunohistochemistry (IHC) at designated time points. IHC was performed after formalin fixation, paraffin embedding and sectioning of the lungs, using a human-specific mouse polyclonal nucleolin antibody (1:500 dilution) and detected using Dako liquid DAB+ Substrate Chromogen System (Dako: k3468, California, USA) followed by a hematoxylin counterstain (Sigma, Oakville, ON, Canada). Sections were mounted and imaged on an Olympus phase contrast microscope (Olympus Life Science, Tokyo, Japan). For immunofluorescence, sections were stained with anti-human nucleolin and anti-human p75NTR antibodies (1:1000 dilution), subsequently detected with 1:200 dilutions of Alexa Fluor™ 488 Goat anti-Mouse IgG (H + L) Highly Cross-Adsorbed Secondary Antibody and Alexa Fluor™ 568 Goat anti-Rabbit IgG (H + L) Cross-Adsorbed Secondary Antibody. Sections were further stained with DAPI to detect all nuclei. Between each treatment, TBS Automation Wash Buffer (Biocare Medical TWB945M) was employed. Images were taken with LSM800 confocal microscope and ZEN system.

[2] = tested on: A875-shp75 melanoma xenograft; assay: Melanoma lung invasion assay, A875-shp75, delayed treatment 3 weeks after cell injection; assay type: in vivo, SCID mice; details: group average
Protocol: as §1, §2

[3] = tested on: AS19 E. coli; assay: Bacterial toxicity (OD630) in the AraTM assay; assay type: cell-based; details: compared with Div17E5
[4] = tested on: A875 NT cells; assay: Wound healing cell motility assay, A875 NT; assay type: cell-based, human; details: for Wound area (Fold), Mean / Wound area (Fold), individual replicates: 10uM; for Wound area, Mean / Wound area, n1-n3: 5μM Q_VD_poH; for Wound area, Mean: N=3
Protocol: (§3) For wound healing assay, cells were grown until confluency and subjected to a wound across the cell mono-layer. Cells were then incubated with serum-free media either with DMSO or a small molecule (with or without 5 µM Q_VD_poH) and imaged at specific time-points. Cell migration is reflected as fold change in wound area over time.

[5] = target: T1, p75^NTR TMD (Homo sapiens, UniProt P08138); assay: AraTM assay, wild-type p75NTR TMD (GFP/OD630); assay type: cell-based; details: structure-activity comparison
T1 sequence (P08138 250-275 limits assumed): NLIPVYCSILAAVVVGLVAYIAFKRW

[6] = tested on: A875 shp75 cells; assay: Wound healing cell motility assay, A875 shp75; assay type: cell-based, human; details: 5μM Q_VD_poH; for Wound area, Mean: N=3
Protocol: as §3

[7] = tested on: A875 melanoma cells (NT); assay: Cleaved PARP western blot (apoptosis), A875 NT; assay type: cell-based, human; details: Q-VD-pOH 5 µM; Div17E5 10 µM
Protocol: One of the main biological readouts of p75^NTR activity in response to neurotrophins is the induction of caspase-mediated apoptotic cell death (Underwood and Coulson, [2008]; Friedman, [2010]; Ibáñez and Simi, [2012]).
COS7, A875 and WM115 cell lines were cultured under standard conditions in DMEM supplemented with 10% fetal calf serum, 100 units/ml penicillin, […] streptomycin, and 2.5 mM glutamine. All cells were authenticated and tested for mycoplasma contamination. A875-NT (control) and A875 shp75 (knockdown) cell lines were described previously (Goh et al, [2018]).

[8] = tested on: A875 NT cells; assay: Boyden chamber chemotaxis/invasion assay, A875 NT; assay type: cell-based, human; details: 5μM Q_VD_pOH; for Fold change (invading cells), Mean: N=3
Protocol: For Boyden chamber assay, Corning® BioCoat™ Matrigel® Invasion Chambers 8.0 µm PET Membrane were used (cat. no. 354480). A875 NT or WM115 cells were serum-starved for 16 h and then seeded at 60,000 cells per well in serum-free media under different conditions, including DMSO (vehicle) or small molecules Div17E5 or Np75-4A22 at different concentrations to the top chamber of the Matrigel-coated trans-well chamber. The pan-caspase inhibitor Q_VD_poH (at 5 µM) was also introduced in the top chamber in some experiments. Two different chemoattractants, NGF (at 50 ng/ml or 100 ng/ml as indicated) or 10% FBS were added to the bottom chamber. Assays were carried out for 8 h after which filters were fixed in 4% PFA and stained with DAPI. Cells that had remained on the top of the filter were gently scrapped away with a cotton tip. The filter lower side was imaged on an inverted fluorescence microscope and counted using ImageJ software (NIH).

Cc1cccc(-c2cncc(Nc3ccc(Br)c(Cl)c3Cl)n2)c1C [4A-22]
Average Photons/second/week, wk2 ([1]; wk2): 77712.5 Photons/second
Average Photons/second/week, wk3 ([1]; wk3): 189000 Photons/second
Average Photons/second/week, wk4 ([1]; wk4): 170125 Photons/second
Average Photons/second/week, wk5 ([1]; wk5): 304375 Photons/second
Average Photons/second/week, wk6 ([1]; wk6): 845350 Photons/second
Average Photons/second/week, wk7 ([1]; wk7): 3166750 Photons/second
Average Photons/second/week, wk2 ([2]; wk2): 9.88E+04 Photons/second
Average Photons/second/week, wk3 ([2]; wk3): 1.46E+05 Photons/second
Average Photons/second/week, wk4 ([2]; wk4): 1.10E+05 Photons/second
Average Photons/second/week, wk5 ([2]; wk5): 2.77E+05 Photons/second
Average Photons/second/week, wk6 ([2]; wk6): 4.60E+05 Photons/second
Average Photons/second/week, wk7 ([2]; wk7): 1.10E+06 Photons/second

CN(C)c1cccc(-c2cncc(Nc3ccc(Br)c(Cl)c3Cl)n2)c1 [MS_63]
bacterial toxicity, as assessed by OD630 [3]: somewhat lower bacterial toxicity
wound healing assay, comparison of Div17E5, MS_18 and MS_63 ([4]; 10 µM): lower potency
Wound area (Fold), Mean ([4]; 0 hours): 1 Fold
Wound area (Fold), individual replicates ([4]; 0 hours): 1.000 Fold
Wound area (Fold), Mean ([4]; 3 hours): 0.912 Fold
Wound area (Fold), individual replicates ([4]; 3 hours): 0.916 Fold and 0.908 Fold
Wound area (Fold), Mean ([4]; 6 hours): 0.874 Fold
Wound area (Fold), individual replicates ([4]; 6 hours): 0.869 Fold and 0.879 Fold
Wound area (Fold), Mean ([4]; 9 hours): 0.827 Fold
Wound area (Fold), individual replicates ([4]; 9 hours): 0.786 Fold and 0.869 Fold
Wound area (Fold), Mean ([4]; 12 hours): 0.792 Fold
Wound area (Fold), individual replicates ([4]; 12 hours): 0.755 Fold and 0.828 Fold
Wound area (Fold), Mean ([4]; 15 hours): 0.762 Fold
Wound area (Fold), individual replicates ([4]; 15 hours): 0.728 Fold and 0.796 Fold
Wound area (Fold), Mean ([4]; 18 hours): 0.73 Fold
Wound area (Fold), individual replicates ([4]; 18 hours): 0.704 Fold and 0.756 Fold
Wound area (Fold), Mean ([4]; 21 hours): 0.71 Fold
Wound area (Fold), individual replicates ([4]; 21 hours): 0.683 Fold and 0.737 Fold
Wound area (Fold), Mean ([4]; 24 hours): 0.697 Fold
Wound area (Fold), individual replicates ([4]; 24 hours): 0.666 Fold and 0.729 Fold

COc1ccccc1-c1cncc(Nc2ccc([N+](=O)[O-])cc2)n1 [Np75-3A01]
activity in the AraTM assay [5]: MS_18 more potent than Np75-3A01, -3A02

COc1cccc(-c2cncc(Nc3ccc([N+](=O)[O-])cc3)n2)c1 [Np75-3A02]
activity in the AraTM assay [5]: MS_18 more potent than Np75-3A01, -3A02

Cc1ccccc1-c1cncc(Nc2ccc([N+](=O)[O-])cc2)n1 [Np75-3A19]
activity in the AraTM assay [5]: Np75-3A21 better than -3A19 and -3A20

Cc1cccc(-c2cncc(Nc3ccc([N+](=O)[O-])cc3)n2)c1 [Np75-3A20]
activity in the AraTM assay [5]: Np75-3A21 better than -3A19 and -3A20

Cc1ccc(-c2cncc(Nc3ccc([N+](=O)[O-])cc3)n2)cc1 [Np75-3A21]
activity in the AraTM assay [5]: best compounds; also recorded: Np75-3A21 better than -3A19 and -3A20; also recorded: best hit from this series

O=C(Nc1ccc([N+](=O)[O-])cc1)c1cncc(-c2ccc3ccccc3c2)n1 [Np75-3A49]
activity in the AraTM assay [5]: activity was lost

O=C(Nc1ccc([N+](=O)[O-])cc1)c1cncc(-c2cccc(OC3CCCC3)c2)n1 [Np75-3A51]
activity in the AraTM assay [5]: activity was lost

COc1ccc(-c2cncc(Nc3ccc(Br)c(Cl)c3)n2)cc1 [Np75-3B03]
activity in the AraTM assay [5]: best compound in this series; also recorded: less potent than MS_18

CC(C)[C@H](NC(=O)c1ccc2ccccc2n1)C(=O)N[C@@H](CC(=O)O)C(=O)COc1c(F)cccc1F [Q-VD-pOH, reference compound]
Wound area, n1-n3 ([6]; 0 hours): 0.942 Fold and 1.051 Fold and 1.006 Fold
Wound area, Mean ([6]; 0 hours): 1.000 Fold
Wound area, n1-n3 ([6]; 3 hours): 0.980 Fold and 1.009 Fold and 0.979 Fold
Wound area, Mean ([6]; 3 hours): 0.989 Fold
Wound area, n1-n3 ([6]; 6 hours): 0.990 Fold and 1.014 Fold and 0.952 Fold
Wound area, Mean ([6]; 6 hours): 0.985 Fold
Wound area, n1-n3 ([6]; 9 hours): 0.935 Fold and 0.937 Fold and 0.886 Fold
Wound area, Mean ([6]; 9 hours): 0.919 Fold
Wound area, n1-n3 ([6]; 12 hours): 0.939 Fold and 0.913 Fold and 0.875 Fold
Wound area, Mean ([6]; 12 hours): 0.909 Fold
Wound area, n1-n3 ([6]; 15 hours): 0.891 Fold and 0.870 Fold and 0.844 Fold
Wound area, Mean ([6]; 15 hours): 0.869 Fold
Wound area, n1-n3 ([6]; 18 hours): 0.856 Fold and 0.835 Fold and 0.800 Fold
Wound area, Mean ([6]; 18 hours): 0.830 Fold
Wound area, n1-n3 ([6]; 21 hours): 0.849 Fold and 0.778 Fold and 0.767 Fold
Wound area, Mean ([6]; 21 hours): 0.798 Fold
Wound area, n1-n3 ([6]; 24 hours): 0.815 Fold and 0.772 Fold and 0.761 Fold
Wound area, Mean ([6]; 24 hours): 0.783 Fold
rescue of Div17E5 effect on cell motility by caspase inhibitor [4]: could not be rescued
Wound area, Mean ([4]; 0 hours): 1.000 Fold
Wound area, n1-n3 ([4]; 3 hours): 0.912 Fold and 1.045 Fold and 0.955 Fold
Wound area, Mean ([4]; 3 hours): 0.971 Fold
Wound area, n1-n3 ([4]; 6 hours): 0.873 Fold and 1.010 Fold and 0.935 Fold
Wound area, Mean ([4]; 6 hours): 0.939 Fold
Wound area, n1-n3 ([4]; 9 hours): 0.814 Fold and 0.952 Fold and 0.859 Fold
Wound area, Mean ([4]; 9 hours): 0.875 Fold
Wound area, n1-n3 ([4]; 12 hours): 0.792 Fold and 0.920 Fold and 0.820 Fold
Wound area, Mean ([4]; 12 hours): 0.844 Fold
Wound area, n1-n3 ([4]; 15 hours): 0.758 Fold and 0.880 Fold and 0.797 Fold
Wound area, Mean ([4]; 15 hours): 0.811 Fold
Wound area, n1-n3 ([4]; 18 hours): 0.732 Fold and 0.836 Fold and 0.772 Fold
Wound area, Mean ([4]; 18 hours): 0.780 Fold
Wound area, n1-n3 ([4]; 21 hours): 0.724 Fold and 0.832 Fold and 0.756 Fold
Wound area, Mean ([4]; 21 hours): 0.771 Fold
Wound area, n1-n3 ([4]; 24 hours): 0.707 Fold and 0.800 Fold and 0.730 Fold
Wound area, Mean ([4]; 24 hours): 0.746 Fold
block of Div17E5-induced apoptosis (cleaved PARP) [7]: could be blocked
Fold change (invading cells), n1-n3 ([8]; With NGF): 2.27 Fold and 1.89 Fold and 2.17 Fold
Fold change (invading cells), Mean ([8]; With NGF): 2.11 Fold
Fold change (invading cells), n1-n3 ([8]; without NGF): 1.22 Fold and 1.02 Fold and 1.42 Fold
Fold change (invading cells), Mean ([8]; without NGF): 1.22 Fold
